Laboratory results as given in patent US20240327488A1, “CONNEXIN-46 PEPTIDE MODULATOR” (UNIVERSIDAD DEL DESARROLLO, priority 2023, published 2024).

Legend:
Assay type in all cases: cell-based, human
HeLa Cx46-GFP cells = assay: Tumor sphere formation on non-adherent surface
Description: (B) Tumor spheres growing is a technique used to determine the cancer stem cells capacity. Hela cells transfected with GFP for a monolayer of cells when they a seeded in a non-adherent surface, and moreover they died after 14 days in culture. However, Hela cells transfected with Cx46GFP do form tumor spheres which survive at last for 14 days. […] (D) graphical comparison between the size of tumor spheres at day 14 under control conditions (outer line) and treated with the peptide (inner line). Plot show the quantification of the tumor sphere size between time 0 and day 14, both under control condition (upper line) and with the peptide (lower line).
Mimetic peptides of the Cx46 domains that would interact with c-Src, Akt or PI3k were designed, synthesized and evaluated for their ability to inhibit the formation of tumor spheres in vitro in Hela cells overexpressing or not Cx46. Briefly, the experiments were done with the following protocols.
Cell line cultures: The HeLa cell line was grown in Dulbecco's Modified Eagle Medium (DMEM) supplemented with 10% fetal bovine serum (FBS) and 1% penicillin 10,000 U/mL, streptomycin sulfate […] (P/S) at 37° C., 5% CO2 and 95% humidity. Every 2 weeks the presence of mycoplasma was analyzed, by means of staining with DAPI. Infected cells were treated with BioMyc-1 (100×) for two weeks.
Cell Transfection: Cells were transfected using Lipofectamine 2000 (Invitrogen). For this HeLa cell cultures were grown to reach 60% confluence. Cells are washed with serum-free DMEM twice and finally exposed to OptiMem™ (Invitrogen) plus 1 μg cDNA. The cDNA for GFP-linked human Cx46 was purchased from Promega. The plasmid also has a resistance to G418, which is an antibiotic that serves for the selection of cells that stably express Cx46-GFP. Cx46 expression was monitored by Western blot and immunofluorescence analysis.
However, Hela cells transfected with Cx46-GFP form large tumor spheres that remain alive for at least 14 days (FIG. 2B; Annex 1). […]

[1] = test system: Akt phosphorylation in S473; assay: Western blot of Akt phosphorylation at S473
Method: (A) Representative Western blot showing, the levels of phosphorylation at S473 (pAKT), total AKT (AKT) and loading control (actin). Different concentrations of TAT-Cx46-Src were tested, ranging between […]. (B) Plot showing the relative levels of pAKT with respect to total AKT at different concentrations of TAT-Cx46-Src. (n=3).
Western blots: Cells were washed three times with phosphate buffered saline
(PBS) pH: 7.4 and then lysed with RIPA buffer (150 mM NaCl, 20 mM Tris pH: 7.4; 0.5% Sodium Desoxycholate, 0.1% Sodium Dodecyl Sulfate (SDS), 1% Nonidet P-40 and a protease inhibitor cocktail tablet). Proteins were quantified using the Qubit™ protein Assay Kit in a Qubit™ Fluorometer following the manufacturer's instructions (ThermoFisher). Subsequently, Laemli buffer (4×) (62.5 mM Tris pH 6.8; 25% glycerol, 2% SDS, 0.01% bromophenol blue and 5% β-mercaptoethanol) was added to the cell lysate and was heated at 95° C. for 3 min, in a thermoblock. About 50 μg of proteins were loaded into each well of a 10% polyacrylamide gel under denaturing conditions (SDS-PAGE). Then the proteins were transferred to a polyvinylidene difluoride (PVDF) membrane by wet transfer for 2 h at 100 V in Tris-Glycine 20% methanol buffer. The membranes were blocked with 5% skimmed milk in Buffer Tris and 0.05% Tween 20 (T-TBS) for 1 h at room temperature under shaking. […]

[2] = test system: Tumor spheres formed by Hela cells transfected with Cx46GFP; assay: Cell viability of tumor spheres (7-AAD uptake)
Method: Tumor spheres formed by Hela cells transfected with Cx46GFP were grown for 14 days. […] TAT-Cx46-Src was added every 3 days (every time that culture media was replaced). At day 14th, 10 mM 7-AAD was added to the extracellular media.

Substance: TAT-Cx46-Src: Mimetic peptide of the Cx46 404-410 C-terminal segment (MHQPPLP) fused with the cell-penetrating TAT peptide; blocks the Cx46/c-Src interaction (GRKKRRQRRRPQMHQPPLP)
- decrease of the size of tumor spheres (HeLa Cx46-GFP cells; 100 μM, 10 days of treatment, HeLa Cx46-GFP cells): about 43%
- tumor sphere size (HeLa Cx46-GFP cells; 100 mM added to the extracellular media every 3 days, Hela Cx46GFP, up to day 14 (FIG. 2C)): reduced tumor sphere size
- inhibition of the cancer stem cells (CSC) functional phenotype (HeLa Cx46-GFP cells; Hela cells (FIGS. 2C and D)): strong inhibition
- Akt phosphorylation levels in S473 ([1]; 100 μM, 24-h treatment, HeLa Cx46-GFP cells): strongly decreased
- Akt phosphorylation in S473 (pAKT relative to total AKT) ([1]; concentrations ranging between 0-100 mM, n=3 (FIG. 3)): decreased Akt phosphorylation
- uptake of 7-AAD dye ([2]; day 14, 10 mM 7-AAD in extracellular media, 100 mM peptide every 3 days, n=3): shown uptake of this Dye
- death of cells in tumor spheres (cell viability studies) ([2]; treatment with 100 μM, HeLa Cx46-GFP tumor spheres): promotes the death of cells in the center of tumor spheres
- cell death of Hela cells Cx46GFP ([2]; tumor spheres grown 14 days, 100 mM added every 3 days, n=3 (FIG. 4)): increase cell death
